# Values quoted from earlier work in publication PMC11686138 (Nature Communications, 2024).
# Target: CLDN4
# Details: reported KD
sequence,measurement,value
NSSYSGNYYSIL [Cpe30 MT2],Kd,1.97 nM
